Laboratory results from ChEMBL document CHEMBL1944527, “Structure-based library design and the discovery of a potent and selective mast cell β-tryptase inhibitor as an oral therapeutic agent” (Bioorg Med Chem Lett, 2012).
Each block holds one molecule with its values, some of them ahead of it.

Assays:
[1] = Volume of distribution at steady state in rat at 2 mg/kg, iv and 10 mg/kg, po; details: in vivo, read-out: Vdss
[2] = Oral bioavailability in rat at 10 mg/kg; type: ADME, organism-based; details: in vivo
[3] = molecular target: Prothrombin (Homo sapiens, UniProt P00734); test: Inhibition of thrombin
[4] = molecular target: T1, Chymase (Homo sapiens, UniProt P23946); test: Inhibition of chymase
T1 sequence (P23946 whole entry): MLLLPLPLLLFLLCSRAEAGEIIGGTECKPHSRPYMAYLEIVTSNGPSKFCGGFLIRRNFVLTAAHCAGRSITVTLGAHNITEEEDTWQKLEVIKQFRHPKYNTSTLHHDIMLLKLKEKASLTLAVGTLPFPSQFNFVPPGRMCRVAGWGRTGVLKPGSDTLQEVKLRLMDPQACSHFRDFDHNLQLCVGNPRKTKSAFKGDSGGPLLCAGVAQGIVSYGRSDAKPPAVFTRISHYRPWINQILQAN

[5] = Tmax in rat at 10 mg/kg, po; type: ADME, organism-based; set-up: dose 10 mg/kg, route oral; details: in vivo
[6] = Cmax in rat at 10 mg/kg, po; type: ADME, organism-based; set-up: dose 10 mg/kg, route oral; details: in vivo
[7] = Inhibition of elastase
[8] = Plasma clearance in rat at 2 mg/kg, iv and 10 mg/kg, po
[9] = Inhibition of trypsin
[10] = Half life in rat plasma at 2 mg/kg, iv
[11] = molecular target: Coagulation factor X (Homo sapiens, UniProt P00742); test: Inhibition of Coagulation factor 10a
Sequence of Coagulation factor X (P00742 41-179 limits assumed): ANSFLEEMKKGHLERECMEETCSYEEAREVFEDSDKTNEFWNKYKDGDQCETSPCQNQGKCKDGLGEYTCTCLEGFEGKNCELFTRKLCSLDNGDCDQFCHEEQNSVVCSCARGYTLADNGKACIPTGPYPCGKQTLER
Sequence of Coagulation factor X (P00742 235-488 limits assumed): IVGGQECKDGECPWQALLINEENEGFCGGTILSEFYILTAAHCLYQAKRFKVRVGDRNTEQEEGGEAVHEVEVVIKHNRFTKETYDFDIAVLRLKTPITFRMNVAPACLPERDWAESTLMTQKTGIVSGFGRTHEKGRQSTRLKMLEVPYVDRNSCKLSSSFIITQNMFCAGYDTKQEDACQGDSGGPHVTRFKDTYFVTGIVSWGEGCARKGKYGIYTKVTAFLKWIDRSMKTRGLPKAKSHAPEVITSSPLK

[12] = Inhibition of human recombinant beta tryptase using S-2366 as substrate after 30 mins by spectrophotometry

Compound: NCc1cccc(C2CCN(C(=O)c3ccc(C#Cc4ccccc4F)o3)CC2)c1.O=C(O)C(F)(F)F
Vd [1]: 18.5 L/kg
bioavailability [2]: 77%
IC50 [3]: > 100000 nM
IC50 [4]: > 100000 nM
Tmax [5]: 3.7 h
Cmax [6]: 121 ng/mL
IC50 [7]: > 100000 nM
clearance [8]: 140 mL/min/kg
IC50 [9]: > 100000 nM
half-life [10]: 2.2 h
IC50 [11]: > 100000 nM

Compound: NCc1cccc(C2CCN(C(=O)c3ccc(C#Cc4cnccn4)o3)CC2)c1
Ki [12]: 2770 nM

Compound: NCc1cccc(C2CCN(C(=O)c3ccc(C#Cc4ccc(F)c(F)c4)o3)CC2)c1
Ki [12]: 742 nM

Compound: NCc1cccc(C2CCN(C(=O)c3ccc(C#Cc4cccs4)o3)CC2)c1
Ki [12]: 236 nM

Compound: NCc1cccc(C2CCN(C(=O)c3ccc(C#Cc4ccc(Cl)cc4)o3)CC2)c1
Ki [12]: 166 nM

Compound: NCc1cccc(C2CCN(C(=O)c3ccc(C#Cc4ccc(Cl)nc4)o3)CC2)c1
Ki [12]: 101 nM

Compound: Cc1ccc(C#Cc2ccc(C(=O)N3CCC(c4cccc(CN)c4)CC3)o2)cc1
Ki [12]: 112 nM

Compound: NCc1cccc(C2CCN(C(=O)c3ccc(C#Cc4ccc(F)cc4)o3)CC2)c1
Ki [12]: 279 nM

Compound: NCc1cccc(C2CCN(C(=O)c3ccc(C#Cc4ncccn4)o3)CC2)c1
Ki [12]: 157 nM

Compound: Cc1ccccc1C#Cc1ccc(C(=O)N2CCC(c3cccc(CN)c3)CC2)o1
Ki [12]: 324 nM

Compound: NCc1cccc(C2CCN(C(=O)c3ccc(C#Cc4ccsc4)o3)CC2)c1
Ki [12]: 327 nM

Continued by falling Ki [12], values first:

Ki [12]: 98 nM
Compound: NCc1cccc(C2CCN(C(=O)c3ccc(C#Cc4cccc(F)c4)o3)CC2)c1

Ki [12]: 84 nM
Compound: NCc1cccc(C2CCN(C(=O)c3ccc(C#Cc4cccnc4)o3)CC2)c1

Ki [12]: 67 nM
Compound: NCc1cccc(C2CCN(C(=O)c3ccc(C#Cc4ccc(F)cc4F)o3)CC2)c1

Vd [1]: 14.1 L/kg
bioavailability [2]: 32%
IC50 [3]: > 100000 nM
Ki [12]: 31 nM
IC50 [4]: > 100000 nM
Tmax [5]: 3.3 h
Cmax [6]: 68 ng/mL
IC50 [7]: > 100000 nM
clearance [8]: 85 mL/min/kg
IC50 [9]: > 100000 nM
half-life [10]: 2.5 h
IC50 [11]: > 100000 nM
Compound: NCc1cccc(C2CCN(C(=O)c3ccc(C#Cc4ccccc4)o3)CC2)c1.O=C(O)C(F)(F)F

Ki [12]: 27 nM
Compound: NCc1cccc(C2CCN(C(=O)c3ccc(C#Cc4ncccc4F)o3)CC2)c1

Ki [12]: 22 nM
Compound: NCc1cccc(C2CCN(C(=O)c3ccc(C#Cc4ccccc4Cl)o3)CC2)c1

bioavailability [2]: 0%
IC50 [3]: > 100000 nM
Ki [12]: 5 nM
IC50 [4]: > 100000 nM
IC50 [7]: > 100000 nM
clearance [8]: 310 mL/min/kg
IC50 [9]: > 100000 nM
half-life [10]: 0.46 h
IC50 [11]: 9000 nM
Compound: NCc1cccc(C2CCN(C(=O)c3ccc(C#Cc4ccccn4)o3)CC2)c1.O=C(O)C(F)(F)F
